Experimental data: patent publication US9296687B2, “Modulators of HSP70/DnaK function and methods of use thereof” (The Trustees of the University of Pennsylvania, priority 2008, dated 2016)
Peptide text beside a SMILES is read from it. * marks the point of attachment. Cbz = O=C(OCc1ccccc1)*; CH2F = FC*

Assays:
EGFR, HER2/ErbB2, AKT = experiment: Western blot of HSP70/HSP90 client proteins in detergent-soluble and detergent-insoluble fractions; format: cell-based, human
Description: FIG. 17. PES impairs the proteasome system. (A) Cell-based 20S proteasome activity assay of H1299 or A875 human tumor cells treated with DMSO, 20 μM PES, 100 nM Velcade (proteasome inhibitor), 1 μM 17-AAG (HSP90 inhibitor), 5 μM CQ (lysosome inhibitor), or 20S proteasome inhibitor epigallocatechin gallate (EGCG). Each graphical representation indicates the mean±SD of at least three independent cultures relative to control (DMSO-treated) cells. (B) Cell extracts from SKBR3 human breast carcinoma cells, treated either with 20 μM PES or 1 μM 17-AAG for 24 h, were immunoprecipitated (IP) using anti-HSP70 or anti-HSP90 antibody. […] MTT assays of MCF7 human breast carcinoma cells pretreated with DMSO, or 5 μM PES for 1 h, followed by the addition of indicated amount of 17-AAG for 47 h. The results represent the mean±SD of at least three independent analysis of cultures relative to control (DMSO-treated) cells. (D and E) H1299 cells (D) or SKBR3 cells (E) were treated with DMSO, 20 μM PES, 17-AAG, or 17-AAG plus bortezomib (Velcade) as indicated; harvested in 1% NP-40 containing lysis buffer; fractionated into detergent-soluble and detergent-insoluble preparations; and assayed by western blot.
FIG. 18. Accumulation of HSP90 client proteins in the protein detergent-insoluble fraction following PES. (A) SKOV3 cells were treated with DMSO, 10 μM PES, or 20 μM PES for 24 h. Note the marked accumulation of EGFR, HER2/ErbB2, and AKT in the detergent-insoluble fraction following 20 μM PES treatment. (B and C) SKOV3 (B) or SKBR3 (C) cells were treated with DMSO, 20 μM PES, or 1 μM 17-AAG, as indicated, for 24 h. Cells were harvested in 1% NP-40 containing lysis buffer, fractionated into detergent-soluble and detergent-insoluble preparations, and assayed by western blot for the proteins indicated.
The HSP70 and HSC70 proteins bind to exposed hydrophobic regions of nascent-, translocating-, misfolded- or partially unfolded-proteins. These ATP-dependent molecular chaperones act in multi-protein complexes in conjunction with one or more regulatory co-chaperones to carry out multiple cellular functions. […] This is illustrated for H1299 cells treated with 10 or 20 μM PES for 24 h. […] This correlates with a reduced abundance of complexes containing HSP70, or HSC70, together with client proteins or co-chaperones (FIGS. 19A and 19B). […] However, since HSP70/HSC70 act as critical co-chaperones for HSP90, for example in client protein recruitment, PES-mediated alteration in the function of the 70-kDa molecular chaperones could be reflected in an altered behavior or expression of many client proteins. To test this idea, we examined the expression of a few well-established HSP90 client proteins, including the transmembrane tyrosine kinase receptors EGFR and HER2/ERBB2, and the downstream signaling factor AKT. These proteins are overexpressed, or aberrantly expressed, in a variety of human tumors, and have been implicated in cancer etiology and pathology. As a control for these studies, we compared the effects of PES to that of the well-established HSP90 inhibitor, 17-allylamino-17-demethoxygeldanamycin (17-AAG). 17-AAG interacts with the N-terminal region of HSP90 and inhibits its ATPase activity; this disrupts interactions of HSP90 with client proteins and leads to client-protein degradation via the ubiquitin-proteasome pathway (Whitesell, et al. 2005; Neckers, et al. 2007). To examine the expression of some HSP70/HSP90 clients, we used western blot analysis of detergent-soluble (clarified) whole cell extracts.

p62/SQSTM1, LC3 = experiment: Autophagy markers in cultured cells (vacuoles, LC3-II, p62/SQSTM1, electron microscopy); format: cell-based, human; settings: for p62/SQSTM1 oligomers in soluble and detergent-insoluble fractions: 24 h, PES 20 μM, Velcade 100 nM, CQ 50 μM, 17-AAG 15 nM
20S proteasome = experiment: Cell-based 20S proteasome activity assay; set-up: species or system human; settings: H1299 or A875 cells; PES 20 μM, 17-AAG 1 μM, CQ 5 μM
HSP70 [1] = target: T1, HSP70 (Homo sapiens, UniProt P0DMV8); experiment: In vitro binding of B-PES on NeutrAvidin resins to 35S-labelled in vitro translated protein
Target sequence in this assay (P0DMV8 whole entry): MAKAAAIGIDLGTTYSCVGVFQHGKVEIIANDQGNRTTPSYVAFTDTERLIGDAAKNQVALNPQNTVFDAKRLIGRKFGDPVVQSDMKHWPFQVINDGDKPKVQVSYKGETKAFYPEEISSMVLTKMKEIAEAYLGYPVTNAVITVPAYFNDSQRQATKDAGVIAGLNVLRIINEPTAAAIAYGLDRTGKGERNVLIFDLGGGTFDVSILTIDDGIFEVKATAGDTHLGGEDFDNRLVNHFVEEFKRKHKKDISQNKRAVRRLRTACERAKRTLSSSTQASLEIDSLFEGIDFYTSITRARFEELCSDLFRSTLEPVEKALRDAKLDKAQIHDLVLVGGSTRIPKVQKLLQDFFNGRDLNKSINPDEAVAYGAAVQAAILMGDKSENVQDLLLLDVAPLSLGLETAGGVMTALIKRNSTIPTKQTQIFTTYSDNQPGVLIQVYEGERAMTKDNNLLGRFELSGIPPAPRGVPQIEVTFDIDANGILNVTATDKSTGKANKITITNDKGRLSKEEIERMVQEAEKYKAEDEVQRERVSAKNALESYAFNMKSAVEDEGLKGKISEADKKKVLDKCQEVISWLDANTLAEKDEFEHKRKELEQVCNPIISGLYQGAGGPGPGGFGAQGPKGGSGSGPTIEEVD

HSC70 = HSC70 (Homo sapiens, UniProt P11142); experiment: Biotin-PES complexes captured with NeutrAvidin resins from treated cells, IP-WB; settings: 20 μM
GRP78 = GRP78 (Homo sapiens, UniProt P11021); experiment: as above; settings: 20 μM, 24 h
HSP70 [2] = target: T1, HSP70; experiment: as above; settings: 20 μM
Target sequence in this assay (P0DMV8 whole entry): as above

HSP70 [3] = target: T1, HSP70; experiment: Competition of untagged PES with B-PES for HSP70; format: binding; set-up: endogenous in cells; host or cells: human tumor cell lines (A875, BX-U2OS, U2OS, H1299, MiaPaCa2, HepG2, SKBR3, 293T); settings: purified HSP70, 0.25 mM B-PES, 0.125 mM untagged PES
Description: FIG. 15. Evidence supporting HSP70 as the cellular target of PES. (A) Competition studies in vivo support HSP70 as a PES target. H1299 cells were either pre-treated with DMSO or excess (25×) untagged PES for 1 h prior to the addition of 20 μM Biotin-PES (B-PES) for 5 h, and examined for the expression of proteins indicated (left). B-PES-containing complexes were captured by NeutrAvidin Resins, and immunoblotted using the indicated antibodies. […] (B) Competition studies in vitro support HSP70 as a PES target. Purified HSP70 protein was incubated with 0.25 mM B-PES in the absence and in the presence of 0.125 mM untagged PES.
Target sequence in this assay (P0DMV8 whole entry): as above

HSP90 = experiment: Biotin-PES complexes captured with NeutrAvidin resins from treated cells, IP-WB; settings: 20 μM, 24 h
HSP70 [4] = target: T1, HSP70; experiment: Capture of HA-tagged HSP70 constructs from transfected H1299 cells with biotinylated compound; format: binding; set-up: expressed in transfected cells; host or cells: H1299
Description: FIG. 1. PES Binds to HSP70. (A) Whole cell extracts (WCE) prepared from A875 and BCL-xL over-expressing U2OS human osteosarcoma cells (BX-U2OS) cells, treated with Biotin or Biotin-PES (B-PES), were captured using NeutrAvidin agarose resins. HSP70-family proteins were identified as the major product in the excised band of ˜70 kDa shown in both Coomassie gels. (B and C) WCE were prepared from the cell lines indicated following 24 h treatment with 20 μM Biotin or B-PES and examined for the expression of proteins indicated (left panel of B and C) by western blot analysis; note that different exposure times were used to visualize these proteins. […] (D) In vitro evidence for an interaction between B-PES and HSP70. Full-length human HSP70 and human HSP90 proteins were in vitro translated in the presence of ^35S-methionine, mixed with B-PES coupled to NeutrAvidin resins, and eluted using 100 mM DTT. The resulting DTT eluates were separated by polyacrylamide gel electrophoresis (SDS-PAGE) and visualized by autoradiography. (E) B-PES interacts with the C-terminal region of HSP70. H1299 cells were transfected with the indicated hemagglutinin (HA)-tagged constructs and exposed to B-PES. B-PES containing complexes were captured by NeutrAvidin Resins, eluted following 100 mM DTT treatment, and immunoblotted with anti-HA antibody following SDS-PAGE. (F) Non-transformed human IMR90 fibroblasts or H1299 lung carcinoma cells were treated with the indicated concentrations of PES for 24 h and cell viability was determined by MTT assays. (G) WCE were prepared from the cell lines indicated following 5 hr treatment with 20 μM PES or B-PES and examined for the expression of proteins indicated (left panel) by western blot analysis; note that different exposure times were used to visualize these proteins. B-PES-containing complexes were captured by NeutrAvidin resins, eluted following 50 mM DTT treatment, and immunoblotted using the indicated antibodies.
The free amide group of PES-Cl was biotinylated and added to HA-tagged HSP70-transfected H1299 cells. The treatment of the cells occurred for 6 hours. The complexes were pulled down with NeutrAvidin beads, eluted with 100 mM DTT treatments, separated with SDS-PAGE and detected with anti-HA antibody (Millipore) by Western blot.
Docking studies were performed using the C-terminal HSP70 crystal structure (FIG. 32) to elucidate the PES binding site in silico (FIG. 33). Blind docking methods were used in the program AutoDock to locate potential PES binding sites. These methods use a course grid docking approach, encompassing the entire protein, to identify favorable binding sites using a known binding ligand, and are examined by hand to support the AutoDock data. […]

caspase-3, caspase-8 = experiment: Western blot for caspase cleavage; format: cell-based, human; settings: U2OS, 20 μM pretreatment 1 h
tumor cell lines = experiment: MTT cell viability assay; format: cell-based, human; settings: 20 μM pretreatment 1 h, then 20 μM PES 24 h
Description: Cell viability assays were performed using an MTT (methyl thiazolyl tetrazolium) colorimetric assay (Roche Applied Science, Cat. No. 11 465 007 001), with the following modifications. Briefly, cells (1×10^4) were plated into 24 well-assay plates in 0.5 ml media and allowed to attach overnight. […] After the incubation period, 50 μl of the water-soluble MTT labeling reagent [3-[4,5-dimethylthiazol-2-yl]-2,5-diphenyl tetrazolium bromid] were added to the cells, and the cells were incubated for 4 h in a humidified chamber at 37° C. with 5% CO2. The metabolized insoluble formazan crystals were then solubilized using 0.5 ml of the Solubilization solution (10% SDS in 0.01M HCl) per well, and the resulting colored solutions were spectrophotometrically quantified at an absorbance of 570 nm.

Chain of HSC70 (P11142 whole entry): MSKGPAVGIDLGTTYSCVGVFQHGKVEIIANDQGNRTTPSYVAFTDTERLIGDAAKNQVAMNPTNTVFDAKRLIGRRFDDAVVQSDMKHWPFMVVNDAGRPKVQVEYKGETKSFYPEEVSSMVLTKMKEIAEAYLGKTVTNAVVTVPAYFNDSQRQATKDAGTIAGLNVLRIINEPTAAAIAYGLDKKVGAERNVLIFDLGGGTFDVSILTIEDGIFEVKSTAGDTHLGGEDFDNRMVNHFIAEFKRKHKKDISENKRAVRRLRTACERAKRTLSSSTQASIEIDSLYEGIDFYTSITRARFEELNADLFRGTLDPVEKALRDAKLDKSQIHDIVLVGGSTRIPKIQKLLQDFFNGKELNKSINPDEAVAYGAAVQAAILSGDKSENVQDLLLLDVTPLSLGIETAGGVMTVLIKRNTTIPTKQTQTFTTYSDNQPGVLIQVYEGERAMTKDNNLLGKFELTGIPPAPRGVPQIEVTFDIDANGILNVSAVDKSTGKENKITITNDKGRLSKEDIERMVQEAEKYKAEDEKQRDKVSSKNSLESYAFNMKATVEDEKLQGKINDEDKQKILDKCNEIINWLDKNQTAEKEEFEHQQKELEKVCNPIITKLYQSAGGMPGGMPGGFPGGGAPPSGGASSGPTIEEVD
Chain of GRP78 (P11021 19-654): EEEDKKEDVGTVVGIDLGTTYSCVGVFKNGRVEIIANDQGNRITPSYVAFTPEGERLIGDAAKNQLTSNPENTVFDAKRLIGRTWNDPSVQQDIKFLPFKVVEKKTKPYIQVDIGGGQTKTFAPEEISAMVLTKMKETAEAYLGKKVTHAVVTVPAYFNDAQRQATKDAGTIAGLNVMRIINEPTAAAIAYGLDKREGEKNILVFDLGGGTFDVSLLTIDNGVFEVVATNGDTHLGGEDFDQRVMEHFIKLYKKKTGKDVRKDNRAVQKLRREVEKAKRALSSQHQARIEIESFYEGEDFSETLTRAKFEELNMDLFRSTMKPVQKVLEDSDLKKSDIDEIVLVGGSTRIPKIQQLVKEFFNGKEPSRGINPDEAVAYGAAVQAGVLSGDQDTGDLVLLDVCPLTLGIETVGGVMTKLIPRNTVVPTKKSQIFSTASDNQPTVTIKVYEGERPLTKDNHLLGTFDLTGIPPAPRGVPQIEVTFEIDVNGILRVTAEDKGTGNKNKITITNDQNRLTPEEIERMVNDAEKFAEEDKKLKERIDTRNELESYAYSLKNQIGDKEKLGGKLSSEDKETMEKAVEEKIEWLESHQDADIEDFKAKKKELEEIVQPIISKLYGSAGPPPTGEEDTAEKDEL

C=CCNC1=C2C[C@@H](C)C[C@H](OC)[C@H](O)[C@@H](C)/C=C(\C)[C@H](OC(N)=O)[C@@H](OC)/C=C\C=C(/C)C(=O)NC(=CC1=O)C2=O [17-AAG, 17-allylamino-17-demethoxygeldanamycin]
fate of HSP90 client proteins (EGFR, HER2/ErbB2, AKT): causes proteasome-mediated degradation of HSP90 client proteins
overall cellular abundance of EGFR, HER2/ErbB2 and AKT (EGFR, HER2/ErbB2, AKT; SKBR3 cells, detergent-soluble extracts, 24 h): reduction in the overall cellular abundance
p62/SQSTM1 oligomers in soluble and detergent-insoluble fractions (p62/SQSTM1, LC3): neither p62/SQSTM1 accumulation nor oligomerization was noted
activity of the 20S proteasome (20S proteasome): little, if any, effect

O=C(CCCCC1SCC2NC(=O)NC21)NCCSSCCC(=O)NS(=O)(=O)C#Cc1ccccc1 (centres unmarked) [B-PES]
interaction with in vitro translated HSP70 (HSP70 [1]): interacts with in vitro translated HSP70
interaction with endogenous HSC70 (HSC70; 24 h): no detectable interaction
HSC70 captured with B-PES (HSC70; IMR90 fibroblasts): did not observe a PES interaction
HSC70 captured with B-PES (HSC70; tumor cells, 5 hr (FIG. 1G)): found together with this small molecule
interaction with endogenous GRP78 (GRP78): no detectable interaction
HSP70 captured with B-PES (HSP70 [2]; IMR90 fibroblasts): did not observe a PES interaction
interaction with endogenous HSP70 (HSP70 [2]; several cell lines, 24 h): interacts with HSP70
HSP70 captured with B-PES (HSP70 [2]; tumor cells, 5 hr (FIG. 1G)): found together with this small molecule
B-PES/HSP70 complex formation (HSP70 [3]): direct interaction between B-PES and HSP70
interaction with endogenous HSP90 (HSP90): no detectable interaction
interaction with amino-terminal ATPase domain of HSP70 (HSP70 [4]; amino acids 2-385): not the amino-terminal ATPase domain
interaction with carboxyl-terminal substrate-binding domain of HSP70 (HSP70 [4]; amino acids 386-641): interacts with the carboxyl-terminal substrate-binding domain

C[C@@H]1C[C@@H]([C@H](O)CC2CC(=O)NC(=O)C2)C(=O)[C@@H](C)C1 [CHX, cycloheximide]
PES-induced p62/SQSTM1 accumulation and oligomerization under co-treatment (p62/SQSTM1, LC3; co-treated with PES for 6 h): reduced the accumulation and oligomerization of the autophagy marker p62/SQSTM1

CC(C)C[C@H](NC(=O)[C@H](Cc1ccccc1)NC(=O)c1cnccn1)B(O)O [Velcade, bortezomib]
p62/SQSTM1 oligomers in soluble and detergent-insoluble fractions (p62/SQSTM1, LC3): promoted p62/SQSTM1 oligomerization primarily in the detergent-insoluble fraction

COC(=O)C[C@H](NC(=O)[C@H](C)NC(=O)[C@@H](NC(=O)OCc1ccccc1)C(C)C)C(=O)CF [Z-VAD-FMK] (Cbz-Val-Ala-Asp(OMe)-CH2F)
cisplatin- and camptothecin-mediated caspase cleavage (caspase-3, caspase-8): inhibited cisplatin- as well as camptothecin-mediated caspase cleavage
effect on PES-mediated loss of cell viability (tumor cell lines): did not alter PES-mediated loss of cell viability
